This note sets out measurements from US20120128670A1, “mTOR INHIBITOR AND ANGIOGENESIS INHIBITOR COMBINATION THERAPY” (OSI PHARMACEUTICALS, LLC, priority 2009, published 2012).

Read-outs that look alike come from different tables or passages of the source.

The test system of data set [1] is OVCAR-5 ovarian carcinoma xenografts. As to the kind of experiment: Study No. 4: tumor growth inhibition in OVCAR-5 ovarian carcinoma xenografts. To be noted: OVCAR-5 xenografts, 14 days, single agent.
Description: (§1) Regarding study Nos. 3 and 4, female athymic nude nu/nu CD-1 mice (6-8 wks, 20-29 g, Charles River Laboratories, Wilmington, Mass., USA) were allowed to acclimate for a minimum of one week prior to initiation of the study. To evaluate tumor growth inhibition, cells were harvested from cell culture flasks during exponential cell growth, washed twice with sterile PBS, counted and resuspended in PBS to a suitable concentration before s.c. implantation on the right flank of nu/nu CD-1 mice. Tumors were established to 200±50 mm^3 in size before randomization into treatment groups of 8 mice each.
(§2) All of the Tumor Growth Inhibition (TGI) studies were performed using 20% Trappsol as the vehicle with once-daily oral administration of OSI-027 for 14 or 28 consecutive days. Body weights were determined twice weekly along with tumor volume (V=[length×(width)]/2) measurements using Vernier calipers. Tumor growth inhibition was determined at different time points by the following formula:
(§3) where Tt=median tumor volume of treated at time t; T0=median tumor volume of treated at time 0; Ct=median tumor volume of control at time t; and C0=median tumor volume of control at time 0. The average TGI over the dosing period was then calculated and reported.
(§4) Tumor regressions were determined and calculated as follows using the formula: % Regression=100(T0−Ti)/T0; where T0 is the mean tumor volume for treated group at the initiation of treatment and Ti is the mean tumor volume for that group at time x.
Data set [2] has as its system DU145 prostate carcinoma xenografts. The settings on record: for % Reg. / Morbidity (Mortality) / Avg. TGI: DU145 xenografts.
Protocol: (§5) With respect to study Nos. 1 and 2, male athymic nude nu/nu mice (6-8 wks, 25-32 g, Harlan) were allowed to acclimate for a minimum of one week prior to initiation of the study. To evaluate tumor growth inhibition, DU145 tumor fragments were implanted s.c. in the right flank of nude mice. Tumors were established to 200±50 mm^3 in size before randomization into treatment groups of 8 mice each.
as §2, §3, §4
In data set [3] the test system is H292 lung carcinoma xenografts. As to the kind of experiment: Study No. 3: tumor growth inhibition in H292 lung carcinoma xenografts. The settings on record: 21 days, single agent.
Description: as §1, §2, §3, §4
For data set [4], the system named is DU145 prostate carcinoma xenografts. As to the kind of experiment: Study No. 2: tumor growth inhibition in DU145 prostate carcinoma xenografts, extended dosing for 28 days. Format: in vivo.
Protocol: as §5
(§6) Body weights were determined twice weekly along with tumor volume (V=[length×(width)]/2) measurements using Vernier calipers. Tumor growth inhibition was determined at different time points by the following formula:
as §3, §4
The test system of data set [5] is SKOV3 ovarian carcinoma xenografts. The data set can be described thus: Study No. 5: tumor growth inhibition in SKOV3 ovarian carcinoma xenografts. To be noted: single agent.
Protocol: With respect to study No. 5, female athymic nude nu/nu mice (11-12 wks, 20-27 g, Harlan) were allowed to acclimate for a minimum of one week prior to initiation of the study. To evaluate tumor growth inhibition, SKOV3 tumor fragments were implanted s.c. in the right flank of nude mice. Tumors were established to mean tumor volume per treatment group of 84.6 mm^3-85.3 mm^3 of 8 mice each.
as §6, §3, §4
Setting [6] is: OSI-027 50 mg/kg qd oral, 50 mg/kg.
Where [7] appears, read: OSI-027 50 mg/kg qd oral, 14 days, single agent.
Where [8] appears, read: OSI-027 50 mg/kg qd oral, 28 days, single agent.
Setting [9] is: OSI-027 65 mg/kg qd oral, 28 days, single agent.
Setting [10] is: OSI-027 50 mg/kg qd oral, 14 days.
The mark [11] stands for this setting: OSI-027 50 mg/kg qd oral, 14 days, 50 mg/kg.
Where [12] appears, read: Sutent 40 mg/kg qd, listed as Sunitinib.
[13] abbreviates: Avastin 4 mg/kg q4d×4, single agent.
[14] abbreviates: Avastin 4 mg/kg q4d×8, single agent.
The mark [15] stands for this setting: Avastin 4 mg/kg q4d (table; text 5 mg/kg q4d×4).
Setting [16] is: Avastin 4 mg/kg q4d (table; text 5 mg/kg q4d×4), listed as Bevacizumab.

In the case of `COc1cccc2cc(-c3nc([C@H]4CC[C@H](C(=O)O)CC4)n4ncnc(N)c34)[nH]c12` [OSI-027, (1R,4R)-4-(4-amino-5-(7-methoxy-1H-indol-2-yl)imidazo[1,5-f][1,2,4]triazin-7-yl)cyclohexanecarboxylic acid], the BWL in data set [1] (OSI-027 50 mg/kg qd oral) turned out to be 0%; in data set [2] (mouse, in vivo, po, 50 mg/kg), 6%; in data set [3] (OSI-027 50 mg/kg qd oral) it was 0%; in data set [4] (setting [8]) it was 14%; in data set [4] (setting [9]) it was 17%; in data set [5] (setting [10]), 2%. Moreover, the “Morbidity (Mortality)” value in data set [1] (OSI-027 50 mg/kg qd oral), in data set [2] (setting [7]), in data set [3] (OSI-027 50 mg/kg qd oral), in data set [4] (setting [8]), in data set [4] (setting [9]) and in data set [5] (setting [10]) was 0/8 throughout. Also, the “% Reg.” value was determined as 6% in data set [1] (setting [6]); 0% in data set [2] (setting [7]); 8% in data set [3] (setting [6]); 0% in data set [4] (setting [8]); 0% in data set [4] (setting [9]); 4% in data set [5] (setting [11]). The “Avg. TGI” value is on record as 78% in data set [1] (setting [6]); 21% in data set [2] (OSI-027 50 mg/kg qd oral, 14 days, single agent, 50 mg/kg); 83% in data set [3] (setting [6]); 40% in data set [4] (OSI-027 50 mg/kg qd oral, 28 days, single agent, 50 mg/kg); 58% in data set [4] (OSI-027 65 mg/kg qd oral, 28 days, single agent, 65 mg/kg); 86% in data set [5] (setting [11]).

`CCN(CC)CCNC(=O)c1c(C)[nH]c(/C=C2\C(=O)Nc3ccc(F)cc32)c1C` [Sutent, sunitinib, reference compound]: the “% Reg.” value in data set [1] (Sutent 40 mg/kg qd) and in data set [3] (Sutent 40 mg/kg qd) was 0% each time. The “Avg. TGI” value in data set [1] (Sutent 40 mg/kg qd) came to 71%; in data set [1] (setting [12]), 71%; in data set [3] (Sutent 40 mg/kg qd), 55%; in data set [3] (setting [12]) it was 55%. Besides, the “Morbidity (Mortality)” value in data set [1] (Sutent 40 mg/kg qd) and in data set [3] (Sutent 40 mg/kg qd) was 0/8 each time.

In the case of “bevacizumab [Avastin, reference compound]”, the “% Reg.” value in data set [2] (setting [13]), in data set [4] (setting [14]), in data set [5] (setting [15]) and in data set [5] (setting [16]) was 0% throughout. Further, the “Avg. TGI” value in data set [2] (setting [13]) amounted to 16%; in data set [2] (Avastin 4 mg/kg q4d×4, single agent, listed as Bevacizumab), 16%; in data set [4] (setting [14]), 32%; in data set [4] (Avastin 4 mg/kg q4d×8, single agent, listed as Bevacizumab), 32%; in data set [5] (setting [15]) it was 67%; in data set [5] (setting [16]), 67%. For the same compound, the “Morbidity (Mortality)” value in data set [2] (setting [13]), in data set [4] (setting [14]) and in data set [5] (setting [15]) was 0/8 throughout.
